Among the data in patent US20250332167A1, “PHARMACEUTICAL USE OF CDK 4/6 INHIBITOR” (priority 2021, published 2025) are IC50 values, retold here.

The test system of test [1] is NCI-H1915. As to the kind of experiment: Proliferation inhibition, non-small cell lung cancer cell line NCI-H1915. It is filed as cell-based. To be noted: Homo sapiens, NCI-H1915, 72 h. As for the experimental part:
Sixteen non-small cell lung cancer cell lines, including NCI-H1792, NCI-H1703, NCI-H441, SNU-761, NCI-H1975, NCI-H358, NCI-H1838, NCI-H1915, A549, SK-MES-1, NCI-H292, PC-9, NCI-H460, NCI-H23, NCI-H1581, and HLF, were used for the proliferation inhibition assay of the present invention compound. […] The cell detection equipment used was In Cell Analyzer 2200 (GE Healthcare).
(§1) With 60 μM as the initial concentration, ten points were obtained by serial five-fold dilution.
Each kind of cell in logarithmic growth phase was inoculated with 4000 cells/100 μl/well into a black transparent bottom 96-well plate and cultured overnight at 37° C. The next day, the plate was taken out, and 20 μL of the prepared sample dilutions was added to each well. The plate was then subjected to treatment at 37° C. for 72 hours. After the treatment period of 72 hours, the plate was taken out and 50 μL of neutral formaldehyde fixative (formaldehyde: PBS=1:9, 50 μl/well) was added to each well. The plate was then fixed at room temperature for 10-30 minutes. Subsequently, the wells were washed twice with 1× PBS (100 μl/well) and treated with 0.2% Triton™-X100 for 5-10 minutes to permeabilize the cells. […] The inhibitory rates of each compound at different concentration points were calculated by using the following formula, and IC50 values were obtained through curve fitting using GraphPad Prism 6.0 software.

The subject of test [2] is U118MG cells. As to the kind of experiment: Proliferation inhibition of human glioblastoma cells U118MG (DAPI cell count, 72 h). In kind it is cell-based. To be noted: U-118-MG, 72 h treatment. As for the experimental part: Human glioblastoma cell U118MG was purchased from NANJING COBIOER BIOSCIENCES CO., LTD. […] The cell detection equipment used was the In Cell Analyzer 2200 (GE Healthcare).
as §1
Medium for U118 MG is the MEM (low glucose) medium supplemented with 10% FBS, 1% penicillin/streptomycin, 1% sodium pyruvate, and 1% MEM NEAA. U118 MG cells were seeded at a density of 4000 cells/100 μL/well in a 96-well black clear-bottom plate and incubated at 37° C. overnight. The plate was then taken, and 20 μL of the prepared diluted samples was added to the wells. The cells were treated at 37° C. for 72 hours. After 72 hours, the plate was taken, and a neutral formaldehyde fixation solution (formaldehyde:PBS=1:9) was added at 50 μL/well. The cells were fixed at room temperature for 10-30 minutes. The wells were washed twice with 1× PBS (100 μL/well), and then permeabilized with 0.2% Triton™-X100 for 5-10 minutes (100 μL/well). […] The plate was scanned by using an In Cell Analyzer, and the number of cells in each well was analyzed. The inhibition rate of each compound at various concentration points was calculated by using the formula provided. The IC50 values were determined by curve fitting using GraphPad Prism 6.0 software.

As to `CC1=Nc2c(F)cc(-c3nc(Nc4ccc(C5CCN(C)CC5)cn4)ncc3F)cc2C12CCCC2.O=C(O)/C=C/C(=O)O` [Compound A, Fumarate salt of 5-fluoro-4-(7′-fluoro-2′-methylspiro[cyclopentane-1,3′-indol]-5′-yl)-N-(5-(1-methylpiperidin-4-yl)pyridin-2-yl)pyrimidine-2-amine], the IC50 came out at 53 nM in test [1] and 23.2 ± 5.2 nM in test [2].

By IC50 is commonly meant the concentration at which inhibition is half-maximal.
